Test systems include SF-268 CNS; OVCAR-8 ovarian; ACHN renal; LOX IMVI melanoma; HT29 colon; SK-MEL-5 melanoma; NCI-H226 lung; IGROV1 ovarian; SR leukemia; U251 CNS.
Holding throughout (experiment): inhibition of tumour cell growth, NCI panel, 48 h

Several values for one entry are separate records, joined by “and”; a condition that tells them apart may be missing. Equal values may be shown once.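 All cell lines were grown in 96-well plates and treated with compound for 48 hours. GI50 is the concentration that inhibits growth by half. TGI denotes the concentration required for complete inhibition of growth.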

Turning to `c1ccc(-c2cc3n4c(-c5ccccc5)nn(-c5ccccc5)c4cnc-3n2)cc1`, the GI50 in the test with SF-268 CNS is 10.1 µM; with OVCAR-8 ovarian, over 50 µM; in the test on ACHN renal, over 50 µM; with LOX IMVI melanoma it was over 50 µM; with HT29 colon it was over 50 µM; in the test on SK-MEL-5 melanoma, over 50 µM. In addition, the GI50 in the test on NCI-H226 lung was over 50 µM; in the test on IGROV1 ovarian, over 50 µM; in the test with SR leukemia it was over 50 µM; with U251 CNS, 7.85 µM. In addition, the TGI with SF-268 CNS, in the test with OVCAR-8 ovarian, in the test with ACHN renal, in the test with LOX IMVI melanoma, with HT29 colon and in the test on SK-MEL-5 melanoma was over 50 µM in each case. Besides, the TGI in the test with NCI-H226 lung, in the test on IGROV1 ovarian, in the test with SR leukemia and in the test on U251 CNS was over 50 µM throughout.
With `CC(=O)OC1=C(CC(C)(C)C)C(=O)c2ccccc2C1=O`, the TGI in the test with SF-268 CNS is 74.9 µM; with OVCAR-8 ovarian, over 100 µM; in the test on ACHN renal it was over 100 µM; with LOX IMVI melanoma, over 100 µM; in the test with HT29 colon, over 100 µM; with SK-MEL-5 melanoma, 51.3 µM. Moreover, the TGI with NCI-H226 lung was over 100 µM; in the test with IGROV1 ovarian, over 100 µM; with SR leukemia it was 50.7 µM; with U251 CNS it was over 100 µM.
Turning to `CC1=C2C3OC(=O)C(C)C3C(O)C[C@@]2(C)C(=O)CC1` (stereo partly drawn), the TGI in the test with SF-268 CNS, with OVCAR-8 ovarian, in the test with ACHN renal, in the test on LOX IMVI melanoma, with HT29 colon and in the test on SK-MEL-5 melanoma was over 100 µM throughout. Also, the TGI with NCI-H226 lung, in the test with IGROV1 ovarian, in the test on SR leukemia and in the test on U251 CNS was over 100 µM in each case.
Take `O=C1CC2OCC=C3CN4CCC5(C(=O)O)C(N1)C2C3CC45` (stereo not drawn): the TGI in the test on SF-268 CNS, in the test with OVCAR-8 ovarian, in the test on ACHN renal, with LOX IMVI melanoma, with HT29 colon and with SK-MEL-5 melanoma was over 100 µM throughout. In addition, the TGI in the test on NCI-H226 lung, in the test with IGROV1 ovarian, in the test on SR leukemia and with U251 CNS was over 100 µM throughout.
For `COC(=O)Nc1nc2ccc(C(=O)c3cccs3)cc2[nH]1`, the GI50 is 0.452 µM in the test on SF-268 CNS; 0.487 µM in the test with OVCAR-8 ovarian; 1.24 µM in the test with ACHN renal; 0.536 µM in the test on LOX IMVI melanoma; 0.0552 µM in the test with HT29 colon; 0.0215 µM and 0.0666 µM in the test with SK-MEL-5 melanoma. For the same compound, the GI50 in the test on NCI-H226 lung is 0.275 µM; in the test on IGROV1 ovarian, 0.594 µM; in the test with SR leukemia it was 0.019 µM and 0.0327 µM; in the test with U251 CNS it was 0.147 µM. The TGI with SF-268 CNS was 60.7 µM and > 100 µM; with OVCAR-8 ovarian, 15.7 µM and > 100 µM; with ACHN renal it was 87.5 µM and > 100 µM; in the test on LOX IMVI melanoma it was over 100 µM; in the test with SK-MEL-5 melanoma it was 6.43 µM and 2.06 µM; in the test with NCI-H226 lung, 1.26 µM and 2.54 µM. Besides, the TGI in the test on IGROV1 ovarian was 36.5 µM and > 100 µM; in the test on SR leukemia, 5.98 µM.
Turning to `CC(C)OP(=O)(OC(C)C)/C(C#N)=C/c1c[nH]c2ccccc12`, the TGI in the test with SF-268 CNS, with OVCAR-8 ovarian, in the test on ACHN renal, in the test on LOX IMVI melanoma, with HT29 colon and in the test on SK-MEL-5 melanoma was over 100 µM throughout. Moreover, the TGI with NCI-H226 lung, in the test with IGROV1 ovarian, in the test with SR leukemia and in the test with U251 CNS was over 100 µM throughout.
For the compound `CC(CC(=O)Nc1ccc(NC(=O)CC(C)N=NC(N)=O)cc1)N=NC(N)=O` (stereo not drawn), the TGI with SF-268 CNS is over 100 µM; in the test with OVCAR-8 ovarian it was over 100 µM; in the test on ACHN renal, over 100 µM; with LOX IMVI melanoma, 79.8 µM; in the test on HT29 colon, over 100 µM; in the test with SK-MEL-5 melanoma, over 100 µM. Besides, the TGI with NCI-H226 lung is over 100 µM; in the test on IGROV1 ovarian, over 100 µM; in the test with SR leukemia it was 48.4 µM; in the test with U251 CNS, over 100 µM.
As for `O=C1/C(=C/c2ccc(O)cc2)Oc2ccccc21`, the TGI in the test on SF-268 CNS, in the test with OVCAR-8 ovarian, in the test with ACHN renal, in the test on LOX IMVI melanoma, in the test with HT29 colon and with SK-MEL-5 melanoma was over 100 µM each time. Also, the TGI with NCI-H226 lung, in the test on IGROV1 ovarian, in the test with SR leukemia and in the test on U251 CNS was over 100 µM throughout.
As to `CCCCOP1(=O)CC(C)=C(Cl)C(C)(OC)C1` (stereo not drawn), the TGI in the test on SF-268 CNS, in the test with OVCAR-8 ovarian, in the test on ACHN renal, in the test on LOX IMVI melanoma, with HT29 colon and in the test with SK-MEL-5 melanoma was over 100 µM throughout. Further, the TGI in the test on NCI-H226 lung is over 100 µM; with IGROV1 ovarian, over 100 µM; with SR leukemia, 89.3 µM; in the test with U251 CNS, over 100 µM.
In the case of `O=C(CCc1cc(-c2ccc(F)cc2)n[nH]1)N(Cc1ccccc1)Cc1ccccc1`, the TGI in the test on SF-268 CNS, in the test on OVCAR-8 ovarian, in the test on ACHN renal, with LOX IMVI melanoma, in the test with HT29 colon and in the test on SK-MEL-5 melanoma was over 100 µM in each case. Moreover, the TGI is over 100 µM with NCI-H226 lung, over 100 µM with IGROV1 ovarian, 81.1 µM with SR leukemia and over 100 µM with U251 CNS.

The record behind these values is PubChem BioAssay (NCI).
